Ten compounds from patent US10759751B2, “Substituted spirocyclohexanes as muscarinic M1 receptor and/or M4 receptor agonists” (Heptares Therapeutics Limited, priority 2016, dated 2020) can be followed below.

Format in all cases: cell-based
Assay [1] concerns the target T1, human muscarinic M1 receptor (Homo sapiens, UniProt P11229).
T1 sequence (P11229 1-460): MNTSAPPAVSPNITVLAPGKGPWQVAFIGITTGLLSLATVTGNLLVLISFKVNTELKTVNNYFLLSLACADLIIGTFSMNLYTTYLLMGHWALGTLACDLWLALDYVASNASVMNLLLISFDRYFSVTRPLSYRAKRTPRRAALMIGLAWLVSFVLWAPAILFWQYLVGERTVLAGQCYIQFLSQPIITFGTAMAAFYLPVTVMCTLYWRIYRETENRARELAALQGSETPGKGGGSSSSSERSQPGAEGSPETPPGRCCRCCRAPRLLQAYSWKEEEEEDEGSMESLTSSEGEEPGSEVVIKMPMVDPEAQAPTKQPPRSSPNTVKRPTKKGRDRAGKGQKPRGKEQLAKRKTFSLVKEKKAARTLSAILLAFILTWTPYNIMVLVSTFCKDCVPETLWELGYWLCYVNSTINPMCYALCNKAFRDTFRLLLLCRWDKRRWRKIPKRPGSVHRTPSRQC
In words: Alphascreen Surefire phospho-ERK1/2 functional assay, M1. The following applies: for EC50: phospho-ERK1/2, read-out: pEC50 M1 (converted); for Emax: CHO, read-out: M1 % Emax cf. ACh, CHO cells stably expressing human M1. The method, then: (§1) Functional assays were performed using the Alphascreen Surefire phospho-ERK1/2 assay (Crouch & Osmond, Comb. Chem. High Throughput Screen, 2008). ERK1/2 phosphorylation is a downstream consequence of both Gq/11 and Gi/o protein coupled receptor activation, making it highly suitable for the assessment of M1, M3 (Gq/11 coupled) and M2, M4 receptors (Gi/o coupled), rather than using different assay formats for different receptor subtypes. CHO cells stably expressing the human muscarinic M1, M2, M3 or M4 receptor were plated (25K/well) onto 96-well tissue culture plates in MEM-alpha+10% dialysed FBS. Once adhered, cells were serum-starved overnight. Agonist stimulation was performed by the addition of 5 μL agonist to the cells for 5 min (37° C.). Media was removed and 50 μL of lysis buffer added. After 15 min, a 4 μL sample was transferred to 384-well plate and 7 μL of detection mixture added. Plates were incubated for 2 h with gentle agitation in the dark and then read on a PHERAstar plate reader.
(§2) pEC50 and Emax figures were calculated from the resulting data for each receptor subtype.

Assay [2] has as its target T2, human muscarinic M2 receptor (Homo sapiens, UniProt P08172).
T2 sequence (P08172 1-466): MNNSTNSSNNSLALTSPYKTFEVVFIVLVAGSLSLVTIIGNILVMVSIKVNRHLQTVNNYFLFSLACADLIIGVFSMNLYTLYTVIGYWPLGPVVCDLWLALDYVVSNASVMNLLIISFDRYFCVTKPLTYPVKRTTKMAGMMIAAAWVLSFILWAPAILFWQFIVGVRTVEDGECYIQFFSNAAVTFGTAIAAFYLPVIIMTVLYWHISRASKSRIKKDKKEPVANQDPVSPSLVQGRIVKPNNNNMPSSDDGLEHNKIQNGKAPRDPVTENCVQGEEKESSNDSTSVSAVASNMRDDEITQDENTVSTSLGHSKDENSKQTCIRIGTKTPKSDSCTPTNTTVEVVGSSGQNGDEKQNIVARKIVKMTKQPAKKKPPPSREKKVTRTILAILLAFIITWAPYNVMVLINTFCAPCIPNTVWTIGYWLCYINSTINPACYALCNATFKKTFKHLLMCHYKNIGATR
In words: Alphascreen Surefire phospho-ERK1/2 functional assay, M2. The note with it: for EC50: CHO cells stably expressing human M2, phospho-ERK1/2, read-out: pEC50 M2 (converted); for Emax: CHO, read-out: M2 % Emax cf. ACh. The protocol: as §1, §2

In assay [3] the target is T3, human muscarinic M3 receptor (Homo sapiens, UniProt P20309).
T3 construct: expressed in transfected cells
In words: Alphascreen Surefire phospho-ERK1/2 functional assay, M3. The note with it: for EC50: phospho-ERK1/2, read-out: pEC50 M3 (converted); for Emax: CHO, read-out: M3 % Emax cf. ACh. The protocol: as §1, §2

Assay [4] has as its target T4, human muscarinic M4 receptor (Homo sapiens, UniProt P08173).
T4 construct: expressed in transfected cells
T4 sequence (P08173 1-479): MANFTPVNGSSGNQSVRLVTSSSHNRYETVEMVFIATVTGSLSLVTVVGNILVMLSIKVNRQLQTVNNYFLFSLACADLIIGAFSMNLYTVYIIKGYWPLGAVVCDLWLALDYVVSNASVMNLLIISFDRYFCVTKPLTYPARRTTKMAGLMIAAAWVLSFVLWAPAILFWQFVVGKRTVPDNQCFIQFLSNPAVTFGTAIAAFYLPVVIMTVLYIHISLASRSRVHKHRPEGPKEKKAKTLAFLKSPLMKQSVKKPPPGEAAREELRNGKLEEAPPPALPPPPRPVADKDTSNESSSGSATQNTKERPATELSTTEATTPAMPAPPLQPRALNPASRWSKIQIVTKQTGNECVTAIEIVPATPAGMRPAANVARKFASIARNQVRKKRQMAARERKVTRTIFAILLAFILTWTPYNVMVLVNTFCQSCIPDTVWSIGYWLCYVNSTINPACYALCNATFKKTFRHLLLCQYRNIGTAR
In words: Alphascreen Surefire phospho-ERK1/2 functional assay, M4. The note with it: for EC50: read-out: pEC50 M4 (converted); for Emax: CHO, read-out: M4 % Emax cf. ACh, CHO cells stably expressing human M4; for Emax / M4 % Emax cf. ACh: Emax relative to ACh. The method, then:
as §1, §2

The mark [5] stands for this setting: CHO cells stably expressing human M1.
Setting [6] is: CHO cells stably expressing human M3.
[7] abbreviates: CHO cells stably expressing human M4, phospho-ERK1/2.
The mark [8] stands for this setting: CHO cells stably expressing human M4.

T3 sequence (P20309 whole entry): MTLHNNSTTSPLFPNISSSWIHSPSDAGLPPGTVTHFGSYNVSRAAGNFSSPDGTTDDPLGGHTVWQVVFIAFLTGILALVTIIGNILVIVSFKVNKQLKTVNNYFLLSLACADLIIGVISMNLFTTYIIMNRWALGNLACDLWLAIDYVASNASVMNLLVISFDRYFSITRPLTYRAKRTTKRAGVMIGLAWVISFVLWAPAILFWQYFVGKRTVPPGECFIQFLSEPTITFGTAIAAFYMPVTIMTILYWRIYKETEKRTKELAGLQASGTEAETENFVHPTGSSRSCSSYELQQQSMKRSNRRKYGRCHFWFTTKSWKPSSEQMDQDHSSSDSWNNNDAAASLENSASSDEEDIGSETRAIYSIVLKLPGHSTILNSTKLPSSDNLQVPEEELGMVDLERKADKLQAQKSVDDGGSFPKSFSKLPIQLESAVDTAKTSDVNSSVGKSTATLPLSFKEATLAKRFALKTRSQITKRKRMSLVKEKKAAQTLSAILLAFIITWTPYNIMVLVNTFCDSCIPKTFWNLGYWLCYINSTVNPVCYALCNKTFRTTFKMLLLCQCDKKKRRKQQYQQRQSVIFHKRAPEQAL

Turning to `CCOC(=O)N[C@H]1CCN(C2CCC(C#N)(c3ccc(F)cn3)CC2)C1` (single isomer, unassigned) [1-14 Isomer 2], the EC50 in assay [1] (setting [5]) was 123 nM; in assay [2], more than 20000 nM; in assay [3] (setting [6]), more than 20000 nM; in assay [4] (setting [7]), more than 20000 nM. The Emax in assay [1] (Emax relative to ACh) is 89%; in assay [2], 2%; in assay [3] it was 0%; in assay [4], 32%.
Turning to `CCCC(=O)N1CCCN(C2CCC3(CC2)C(=O)Nc2ccccc23)CC1` (single isomer, unassigned) [4-3 isomer 2], the EC50 in assay [1] (setting [5]) is 794 nM; in assay [2], more than 20000 nM; in assay [3] (setting [6]), more than 20000 nM; in assay [4] (setting [7]) it was more than 20000 nM. Moreover, the Emax in assay [1] (Emax relative to ACh) worked out at 57%; in assay [2] it was 3%; in assay [3] it was 2%; in assay [4] it was 20%.
In the case of `Cc1noc(C2CC3(CCN(C4CCC(C#N)(c5ccccc5F)CC4)C3)C2)n1` (single isomer, unassigned) [21-2 Isomer 3], the EC50 was 72.4 nM in assay [1] (setting [5]), more than 20000 nM in assay [2], more than 20000 nM in assay [3] (setting [6]) and 61.7 nM in assay [4] (setting [7]). Besides, the Emax in assay [1] (Emax relative to ACh) came to 77%; in assay [2], 16%; in assay [3], 15%; in assay [4], 58%.
Turning to `CCOC(=O)N[C@@H]1CCN(C2CCC(C#N)(c3ccccc3)CC2)C1` (single isomer, unassigned) [1-2 Isomer 2], the EC50 in assay [1] (setting [5]) is 209 nM; in assay [2], more than 20000 nM; in assay [3] (setting [6]) it was more than 20000 nM; in assay [4] (setting [7]), 741 nM. Also, the Emax in assay [1] (Emax relative to ACh) was 102%; in assay [2], 23%; in assay [3] it was 1%; in assay [4], 52%.
`CCOC(=O)N[C@H]1CCN(C2CCC(C#N)(c3cccc(C)c3)CC2)C1` (single isomer, unassigned) [1-9 Isomer 2]: the EC50 is 27.5 nM in assay [1] (setting [5]), more than 20000 nM in assay [2], more than 20000 nM in assay [3] (setting [6]) and more than 20000 nM in assay [4] (setting [7]). Also, the Emax stood at 99% in assay [1] (Emax relative to ACh), 6% in assay [2], 2% in assay [3] and 12% in assay [4].
For the compound `CCOC(=O)N1CCCN(C2CCC(C#N)(c3ccc(OCC)cn3)CC2)CC1` (single isomer, unassigned) [3-20 Isomer 2], the EC50 in assay [1] (setting [5]) was 11.5 nM; in assay [2], more than 20000 nM; in assay [3] (setting [6]) it was more than 20000 nM; in assay [4] (setting [7]), more than 20000 nM. The maximal response (Emax) was 139% in assay [1] (Emax relative to ACh), 27% in assay [2], 2% in assay [3] and 7% in assay [4].
For `CC(=O)OCC[N+](C)(C)C` [ACh], in assay [3] (CHO cells stably expressing human M3, Emax relative to ACh), the “M3 % Emax cf. ACh” value was 115%. The “M4 % Emax cf. ACh” value in assay [4] (setting [8]) came to 110%.
In the case of `Cc1noc(C2CC2CNC2CCC3(CC2)C(=O)Nc2ccccc23)n1` (single isomer, unassigned) [23-1 Isomer 1], the EC50 in assay [1] (setting [5]) is 347 nM; in assay [3] (setting [6]), more than 20000 nM; in assay [4] (setting [7]), 251 nM. The maximal response (Emax) stood at 113% in assay [1] (Emax relative to ACh), 8% in assay [3] and 78% in assay [4].
Consider `CCOC(=O)N[C@H]1CCN(C2CCC3(CC2)C(=O)Nc2cc(F)ccc23)C1` (single isomer, unassigned) [2-7 isomer 1], for which the “M1 % Emax cf. ACh” value in assay [1] (CHO cells stably expressing human M1, Emax relative to ACh) is on record as 35%. In addition, in assay [1] (setting [5]), the EC50 was 1780 nM. Moreover, in assay [4] (setting [8]), the “M4 % Emax cf. ACh” value was found to be 1%. The “pEC50 M4” value in assay [4] (setting [7]) is on record as less than 4.7.
On to `CCOC(=O)N1CCCN(C2CCC3(CC2)CN(S(C)(=O)=O)c2ncccc23)CC1` (single isomer, unassigned) [4-19 isomer 1], for which the EC50 is 6760 nM in assay [1] (setting [5]) and 324 nM in assay [4] (setting [7]). Further, the maximum response (Emax) in assay [1] (Emax relative to ACh) was 104%; in assay [4] it was 97%.
